# Measurements as given in patent US11191773B2, “Methods of treatment for bacterial infections” (President and Fellows of Harvard College, priority 2017, dated 2021).
# How the values were obtained:
# [1] = system: lptB1; test: Minimum inhibitory concentration assay; type: cell-based, E. coli
# Experimental: (§1) We wondered whether it would be possible to separate novobiocin's ability to suppress the IptFG(ch) defects in vivo from its activity against DNA gyrase, its presumed primary target. […] Minimum inhibitory concentrations were measured after a 15-hr incubation period at 37° C.
# (§2) Overnight cultures were prepared by transferring 5 mL of sterile LB Miller media to culture tubes and inoculating with the corresponding organism. The tubes were allowed to shake at 220 rpm, 37° C. overnight. 15 μL of overnight culture was diluted in 15 mL of LB Miller in a Falcon tube and was vortexed to mix. In a 96-well plate, 100 μL of diluted culture was added to each well. To column #1, an additional 100 μL of diluted culture and test compound was added (93.7 μL culture+6.35 μL 10 mg/mL novobiocin) or (94.2 μL culture+5.87 μL 10 mg/mL 1-adamantyl-novobiocin) such that the highest concentration tested was 500 μM. Transferred 100 μL from column #1 into column #2, etc, and mixed each time thoroughly. Repeated serial dilution until column #11. Incubated the plate at 37° C. overnight (˜16 h) and read the turbidity (OD600) using a Spectramax 384 plus plate reader (Molecular Devices).
# [2] = system: wild type; test: Minimum inhibitory concentration assay; type: cell-based, E. coli; details: Escherichia coli, 15 h, read-out: Minimum inhibitory concentration
# Experimental: as §1, §2
# [3] = system: ΔtolC; test: Minimum inhibitory concentration assay; type: cell-based, E. coli
# Experimental: as §1, §2
# [4] = system: IptFG(ch) mutant; test: Rescue of growth of coupling helix mutant (plating and disk assays); type: cell-based, E. coli
# Experimental: FIG. 8B is a series of pictures of bacterial overnight cultures grown in minimal medium. The cultures were serially diluted ten-fold and spotted onto LB agar plates with and without compounds.
# FIG. 15 is a picture of bacterial lawns grown on plates in the presence of disks containing antibiotics. […] Strains were grown overnight in minimal media and then plated on LB plates. Each disk contained 5 μg compound.
# The coupling helices in LptFG each contain a strictly-conserved glutamate, and changing both glutamates to alanine (IptFG(ch)) causes a lethal loss of function (FIG. 8B, LB panel). […] Because novobiocin also contacts R91 (FIG. 7C), we speculated that it might rescue growth of IptFG(ch) by masking the charge. […] We conclude that novobiocin suppresses Lpt defects in vivo by interacting with LptB at R91; therefore, novobiocin interacts with LptB in cells in a similar manner to that observed in the crystal structure.
# Disk diffusion assays were performed as described in Sherman et al., Proc. Natl. Acad. Sci. USA 2014, 111, 4982-4987. Premade Sensi-Disc (BD-Beckton, Dickinson and Company) were used for bacitracin 10IU, erythromycin 15 μg, novobiocin 30 μg, and rifampin 5 μg.
# (§3) Efficiency of plating assays were performed on indicated media using the method described in Butler et al., J. Bacteriol. 2013, 195, 4639-4649.
# [5] = target: T1, LptB2LptFG(ch)C complexes (Escherichia coli, UniProt P0A9V1); test: LPS-release assay, right-side-out vesicles to LptA*; type: biochemical, E. coli; details: 30° C. (FIG. 9C)
# T1 construct: made in house; host or cells: right-side-out membrane vesicles from E. coli BL-21(λDE3) overexpressing the complex
# Experimental: (§4) FIG. 9A is a schematic drawing showing the assay to monitor LPS release from right-side-out vesicles to LptA* (LptA(I36pBPA)). Vesicles containing overexpressed wild-type or mutant LptB2FGC complexes were incubated with LptA* and ATP at 30° C. to initiate LPS extraction and transport from the vesicles to LptA*. Samples were taken at different time points and UV-irradiated to crosslink LPS to LptA*, and accumulation of LPS-LptA* adducts was detected using LPS immunoblots.
# (§5) The assay detects via immunoblot LPS that becomes crosslinked to LptA* in the presence of UV light. […] By comparison, vesicles containing LptB2LptFG(ch)C complexes released less LPS over time (FIG. 9B, lanes 5-8). These experiments provide direct evidence that the amino acid changes in LptFG(ch), which were known to affect complex formation with LptB, impair LPS release. […] These compounds also increase LPS release from vesicles containing wild-type LptB2FGC complexes or LptB(R91 S)2FGC complexes (FIG. 17).
# The in vitro LPS-transport experiments in FIGS. 9B, 9C, and 17 were set-up as described in (Okuda et al. Science 2012, 338, 1214-1217) with some modifications. […]
# (§6) Immunoblotting was used to assess LptA*-LPS levels in each sample. […] LptA levels were assessed similarly, using rabbit anti-LptA antiserum followed by donkey anti-rabbit horseradish peroxidase conjugate (GE Amersham). […]
# [6] = system: wild type and IptB1; test: Plating assay (FIG. 14); type: cell-based, E. coli
# Experimental: as §3
# [7] = target: T2, wild-type LptB2FGC complexes (Escherichia coli, UniProt P0A9V1); test: LPS-release assay, right-side-out vesicles to LptA*; type: biochemical, E. coli; details: overexpressed LptB2FGC vesicles, 30° C. for 1 hour (FIG. 9D, 9E)
# T2 construct: made in house; host or cells: right-side-out membrane vesicles from E. coli BL-21(λDE3) overexpressing the complex
# Experimental: as §4
# FIG. 9D is a picture of an immunoblot showing that novobiocin and derivatives with impaired gyrase activities stimulate LPS transport in E. coli in vitro. […] Samples were UV irradiated at 365 nm for 5 minutes and then quenched with 2X SDS/5% β-mercaptoethanol. Samples were immunoblotted.
# as §5
# Samples were UV irradiated at 365 nm for 5 minutes and then quenched with 2X SDS/5% β-mercaptoethanol. Samples were immunoblotted.
# The in vitro LPS-transport experiments in FIGS. 9B, 9C, and 17 were set-up as described in (Okuda et al. Science 2012, 338, 1214-1217) with some modifications. RSO-vesicles (50 μg total protein) were diluted into 100 μL reaction buffer (10% v/v glycerol, 20 mM Tris (pH 8.0), 150 mM NaCl, 5 mM sodium-ATP, 5 mM MgCl2), and incubated on ice with novobiocin, 1-adamantyl-novobiocin, or no compound for 15 minutes (50× compound stocks in water were used for each concentration). […]
# as §6
# [8] = system: wild-type E. coli; test: Checkerboard microdilution assay between PMB and clorobiocin / novobiocin (FIG. 9F); type: cell-based; details: 37° C. for 24 h
# [9] = Escherichia coli, 15 h, read-out: Minimum inhibitory concentration
# T1 sequence (P0AF98 whole entry E84A): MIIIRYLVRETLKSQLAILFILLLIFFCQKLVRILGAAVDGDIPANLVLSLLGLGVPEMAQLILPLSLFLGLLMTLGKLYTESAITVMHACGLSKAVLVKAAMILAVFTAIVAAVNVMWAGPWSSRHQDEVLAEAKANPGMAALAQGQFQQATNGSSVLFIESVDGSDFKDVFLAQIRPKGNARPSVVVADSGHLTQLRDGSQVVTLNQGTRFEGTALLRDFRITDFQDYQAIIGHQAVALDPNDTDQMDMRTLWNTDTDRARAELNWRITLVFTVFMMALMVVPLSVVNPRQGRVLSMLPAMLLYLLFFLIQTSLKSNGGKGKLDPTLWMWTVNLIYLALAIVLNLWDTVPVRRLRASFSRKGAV
# T1 sequence (P0ADC6 whole entry E88A, further chain): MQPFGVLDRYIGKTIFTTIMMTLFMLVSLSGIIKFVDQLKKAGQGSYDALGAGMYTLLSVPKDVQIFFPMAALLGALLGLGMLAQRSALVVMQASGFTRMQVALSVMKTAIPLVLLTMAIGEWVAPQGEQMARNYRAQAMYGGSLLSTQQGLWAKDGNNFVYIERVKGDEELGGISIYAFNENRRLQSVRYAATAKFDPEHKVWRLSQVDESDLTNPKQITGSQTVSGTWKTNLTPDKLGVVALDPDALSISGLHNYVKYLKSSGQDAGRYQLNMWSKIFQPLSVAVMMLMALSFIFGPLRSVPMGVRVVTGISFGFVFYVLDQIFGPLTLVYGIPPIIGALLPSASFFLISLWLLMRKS
# T1 sequence (P0A9V1 2-241): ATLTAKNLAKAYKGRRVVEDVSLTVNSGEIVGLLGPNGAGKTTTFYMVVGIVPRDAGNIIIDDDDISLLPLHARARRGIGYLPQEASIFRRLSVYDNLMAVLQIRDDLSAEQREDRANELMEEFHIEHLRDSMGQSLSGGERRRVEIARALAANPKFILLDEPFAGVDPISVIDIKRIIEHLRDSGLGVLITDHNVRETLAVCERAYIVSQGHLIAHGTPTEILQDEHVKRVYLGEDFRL
# T1 sequence (P0ADV9 whole entry, further chain): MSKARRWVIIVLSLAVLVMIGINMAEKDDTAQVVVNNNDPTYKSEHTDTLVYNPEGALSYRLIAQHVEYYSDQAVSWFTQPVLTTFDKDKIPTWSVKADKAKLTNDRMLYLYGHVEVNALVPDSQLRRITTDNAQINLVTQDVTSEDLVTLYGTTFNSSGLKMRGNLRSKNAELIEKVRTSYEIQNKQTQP
# T2 sequence (P0AF98 whole entry): as the sequence (P0AF98 whole entry E84A) above, with A84E counted along it
# T2 sequence (P0ADV9 whole entry, further chain): as the sequence (P0ADV9 whole entry, further chain) above
# T2 sequence (P0ADC6 whole entry, further chain): as the sequence (P0ADC6 whole entry E88A, further chain) above, with A88E counted along it
# T2 sequence (P0A9V1 2-241): as the sequence (P0A9V1 2-241) above
SMILES,"MIC [1, 9] [µM]",less potent in vivo compared to novobiocin ([1]; leaky IptB1 strain) [×],MIC [2] [µM],"MIC [3, 9] [µM]",less potent in vivo compared to novobiocin ([3]; efflux pump-deficient ΔtoIC strain) [×],"suppression of lethality of IptFG(ch) ([4]; disks on LB plates, each disk 5 μg compound (FIG. 15))",rescue of growth of IptFG(ch) ([4]; serial dilutions spotted onto LB agar plates with compound (FIG. 8B)),LPS release from vesicles to LptA* [5],potency compared to novobiocin [6],LPS transport in vitro [7],synergy with PMB [8]
"COC1C(OC(N)=O)C(O)[C@H](Oc2ccc3c(O)c(NC(=O)C45CC6CC(CC(C6)C4)C5)c(=O)oc3c2C)OC1(C)C (stereo partly drawn) [Novobiocin-adamantyl, (3R,4S,5R,6R)-6-((3-((3R,5S)-adamantane-1-carboxamido)-4-hydroxy-8-methyl-2-oxo-2H-chromen-7-yl)oxy)-5-hydroxy-3-methoxy-2,2-dimethyltetrahydro-2H-pyran-4-yl carbamate]",125,~100,> 500,125 to 250,~100,suppressed the lethality of IptFG(ch),completely suppressed the lethality of IptFG(ch),stimulate LPS release from the LptB2LptFG(ch)C vesicles in a concentration dependent manner,less potent than novobiocin,,
CO[C@@H]1[C@@H](OC(=O)c2ccc(C)[nH]2)[C@@H](O)[C@H](Oc2ccc3c(O)c(NC(=O)c4ccc(O)c(CC=C(C)C)c4)c(=O)oc3c2Cl)OC1(C)C [clorobiocin],,,,,,,,,,highly stimulates LPS transport in vitro,more potent synergy with PMB than novobiocin
